Assay results reported in US8916702B2 (priority 2012, dated 2014).

system: HCV pseudoparticles (genotype 1a HCV E1 and E2 envelope, H77C isolate); assay: microbe, parasite or virus in culture; type: cell-based; settings: Hepatitis C virus, Huh-7, 48 h, HCV pseudoparticle infection of Huh7 cells, luciferase 2 days after infection; average of duplicates

| Structure (SMILES) | EC50 |
| --- | --- |
| COC(=O)[C@H](CCNC(=O)C(=O)Nc1ccccn1)NC(=O)c1ccc(Nc2nc(NC3(c4ccc(Cl)cc4)CC3)nc(OCC(F)(F)F)n2)cc1 [Compound 1237] | 0.77 nM |
| COC(=O)[C@H](CCNC(=O)C(=O)NCCc1cccnc1)NC(=O)c1ccc(Nc2nc(NC3(c4ccc(Cl)cc4)CC3)nc(OCC(F)(F)F)n2)cc1 [Compound 1316] | 0.57 nM |
| COc1cc(NC(=O)C(=O)NC[C@H](NC(=O)c2ccc(Nc3nc(NC4(c5ccc(Cl)cc5)CC4)nc(OCC(F)(F)F)n3)cc2)C(=O)O)ccn1 [Compound 1348] | 0.5 nM |

same assay, conditions: Hepatitis C virus, Huh-7, 48 h, HCV pseudoparticles (genotype 1a, H77C) in Huh7 cells; average of duplicate; luciferase 2 days after infection

| Structure (SMILES) | EC50 |
| --- | --- |
| COC(=O)[C@H](CCNC(=O)C(=O)Nc1ccc(-c2cc[nH]n2)cc1)NC(=O)c1ccc(Nc2nc(NC3(c4ccc(Cl)cc4)CC3)nc(OCC(F)(F)F)n2)cc1 [Compound 3310] | 2.15 nM |
| COC(=O)[C@H](CCNC(=O)C(=O)Nc1ccc(Oc2ccccc2)cc1)NC(=O)c1ccc(Nc2nc(NC3(c4ccc(Cl)cc4)CC3)nc(OCC(F)(F)F)n2)cc1 [Compound 3113] | 7.77 nM |

same assay, conditions: Hepatitis C virus, Huh-7, 48 h, read-out: Activity (EC50 class), HCV pseudoparticle infection of Huh7 cells, luciferase 2 days after infection; EC50 expressed as class A/B

| Structure (SMILES) | EC50 |
| --- | --- |
| Cn1ccnc1NC(=O)C(=O)NCC[C@H](NC(=O)c1ccc(Nc2nc(NC3(c4ccc(Cl)cc4)CC3)nc(OCC(F)(F)F)n2)cc1)C(=O)O [Compound 1264] | 10 to 1000 nM |
| CC(C)(CNC(=O)C(=O)Nc1ccc(C(C)(C)C)cc1)CNC(=O)c1ccc(Nc2nc(NC3(c4ccc(Cl)cc4)CC3)nc(OCC(F)(F)F)n2)cc1 [Compound 1576] | 0.01 to 10 nM |
| CC(C)(CNC(=O)C(=O)Nc1ccc(-c2nn[nH]n2)cc1)CNC(=O)c1ccc(Nc2nc(NC3(c4ccc(Cl)cc4)CC3)nc(OCC(F)(F)F)n2)cc1 [Compound 1495] | 0.01 to 10 nM |
| NC(=O)C(=O)N1CCCC(C(NC(=O)c2ccc(Nc3nc(NC4(c5ccc(Cl)cc5)CC4)nc(OCC(F)(F)F)n3)cc2)C(=O)O)C1 (stereo not drawn) [Compound 1018, 2-(1-(2-amino-2-oxoacetyl)piperidin-3-yl)-2-(4-(4-(1-(4-chlorophenyl)cyclopropylamino)-6-(2,2,2-trifluoroethoxy)-1,3,5-triazin-2-ylamino)benzamido)acetic acid] | 0.01 to 10 nM |
| O=C(NCCc1ccccc1F)C(=O)NCC[C@H](NC(=O)c1ccc(Nc2nc(NC3(c4ccc(Cl)cc4)CC3)nc(OCC(F)(F)F)n2)cc1)C(=O)O [Compound 1334] | 0.01 to 10 nM |
| COC(=O)[C@H](CCNC(=O)C(=O)Nc1ccccn1)NC(=O)c1ccc(Nc2nc(NC3(c4ccc(Cl)cc4)CC3)nc(OCC(F)(F)F)n2)cc1 [Compound 1237] | 0.01 to 10 nM |
| COC(=O)[C@H](CNC(=O)C(=O)N[C@H]1C[C@H]1c1ccccc1)NC(=O)c1ccc(Nc2nc(NC3(c4ccc(Cl)cc4)CC3)nc(OCC(F)(F)F)n2)cc1 [Compound 1294] | 0.01 to 10 nM |
| CC(C)(CNC(=O)C(=O)Nc1cccc(CC(=O)O)c1)CNC(=O)c1ccc(Nc2nc(NC3(c4ccc(Cl)cc4)CC3)nc(OCC(F)(F)F)n2)cc1 [Compound 1480] | 0.01 to 10 nM |
| COC(=O)[C@H](CNC(=O)C(=O)NCc1ccc(F)cc1F)NC(=O)c1ccc(Nc2nc(NC3(c4ccc(Cl)cc4)CC3)nc(OCC(F)(F)F)n2)cc1 [Compound 1134] | 0.01 to 10 nM |
| C[C@@H](NC(=O)C(=O)NCC[C@H](NC(=O)c1ccc(Nc2nc(NC3(c4ccc(Cl)cc4)CC3)nc(OCC(F)(F)F)n2)cc1)C(=O)O)C1CC1 [Compound 1420] | 0.01 to 10 nM |
| COC(=O)[C@H](CCNC(=O)C(=O)NCCc1cccnc1)NC(=O)c1ccc(Nc2nc(NC3(c4ccc(Cl)cc4)CC3)nc(OCC(F)(F)F)n2)cc1 [Compound 1316] | 0.01 to 10 nM |
| Cc1cccc(NC(=O)C(=O)NCC(C)(C)CNC(=O)c2ccc(Nc3nc(NC4(c5ccc(Cl)cc5)CC4)nc(OCC(F)(F)F)n3)cc2)c1 [Compound 1597] | 0.01 to 10 nM |
| COc1cc(NC(=O)C(=O)NC[C@H](NC(=O)c2ccc(Nc3nc(NC4(c5ccc(Cl)cc5)CC4)nc(OCC(F)(F)F)n3)cc2)C(=O)O)ccn1 [Compound 1348] | 0.01 to 10 nM |
| O=C(NCc1cc(F)ccc1F)C(=O)NC[C@H](NC(=O)c1ccc(Nc2nc(NC3(c4ccc(Cl)cc4)CC3)nc(OCC(F)(F)F)n2)cc1)C(=O)O [Compound 1169] | 0.01 to 10 nM |
| O=C(NCCn1cccn1)C(=O)NC[C@H](NC(=O)c1ccc(Nc2nc(NC3(c4ccc(Cl)cc4)CC3)nc(OCC(F)(F)F)n2)cc1)C(=O)O [Compound 1411] | 0.01 to 10 nM |
| CC(C)(CNC(=O)C(=O)Nc1ccc(-c2cccc(Cl)c2)cc1)CNC(=O)c1ccc(Nc2nc(NC3(c4ccc(Cl)cc4)CC3)nc(OCC(F)(F)F)n2)cc1 [Compound 1588] | 0.01 to 10 nM |
| COC(=O)[C@H](CCNC(=O)C(=O)Nc1cnn(C)c1)NC(=O)c1ccc(Nc2nc(NC3(c4ccc(Cl)cc4)CC3)nc(OCC(F)(F)F)n2)cc1 [Compound 1226] | 0.01 to 10 nM |
| COC(=O)[C@H](CCNC(=O)C(=O)NCCc1ccccc1F)NC(=O)c1ccc(Nc2nc(NC3(c4ccc(Cl)cc4)CC3)nc(OCC(F)(F)F)n2)cc1 [Compound 1313] | 0.01 to 10 nM |
| COC(=O)[C@H](CCNC(=O)C(=O)Nc1ccc(F)c(F)c1F)NC(=O)c1ccc(Nc2nc(NC3(c4ccc(Cl)cc4)CC3)nc(OCC(F)(F)F)n2)cc1 [Compound 1508] | 0.01 to 10 nM |
| COC(=O)[C@H](CCNC(=O)C(=O)Nc1ccccc1F)NC(=O)c1ccc(Nc2nc(NC3(c4ccc(Cl)cc4)CC3)nc(OCC(F)(F)F)n2)cc1 [Compound 1231] | 0.01 to 10 nM |
| COC(=O)[C@H](CCNC(=O)C(=O)Nc1cccnc1OC)NC(=O)c1ccc(Nc2nc(NC3(c4ccc(Cl)cc4)CC3)nc(OCC(F)(F)F)n2)cc1 [Compound 1216] | 0.01 to 10 nM |

same assay, conditions: Hepatitis C virus, Huh-7, 48 h, read-out: Activity (EC50 class), HCV pseudoparticles, Huh7 cells, luciferase 2 days after infection; average of duplicates

| Structure (SMILES) | EC50 |
| --- | --- |
| O=C(NC[C@H](NC(=O)c1ccc(Nc2nc(NC3(c4ccc(Cl)cc4)CC3)nc(OCC(F)(F)F)n2)cc1)C(=O)O)C(=O)Nc1cccc(CCc2ccccn2)c1 [Compound 3769] | 0.01 to 10 nM |
| CC(C)c1ccc(COc2nc(Nc3ccc(C(=O)NCC(C)(C)CNC(=O)C(=O)Nc4ccccc4-c4ccccc4)c(F)c3)nc(NC3(c4ccc(Cl)cc4)CC3)n2)cc1 [Compound 3830, N^1-([1, 1′-biphenyl]-2-yl)-N^2-(3-(4-((4-((1-(4-chlorophenyl)cyclopropyl)amino)-6-((4-isopropylbenzyl)oxy)-1,3,5-triazin-2-yl)amino)-2-fluorobenzamido)-2,2-dimethylpropyl)oxalamide] | 0.01 to 10 nM |
| CNS(=O)(=O)c1cccc(NC(=O)C(=O)NC[C@H](NC(=O)c2ccc(Nc3nc(NC4(c5ccc(Cl)cc5)CC4)nc(OCC(F)(F)F)n3)cc2)C(=O)Cl)c1 [Compound 3782] | 0.01 to 10 nM |
| COC(=O)[C@H](CNC(=O)C(=O)Nc1cccc(-c2nnnn2C)c1)NC(=O)c1ccc(Nc2nc(NC3(c4ccc(Cl)cc4)CC3)nc(OCC(F)(F)F)n2)cc1 [Compound 3731] | 0.01 to 10 nM |
| Cn1cnnc1-c1cccc(NC(=O)C(=O)NC[C@H](NC(=O)c2ccc(Nc3nc(NC4(c5ccc(Cl)cc5)CC4)nc(OCC(F)(F)F)n3)cc2)C(=O)O)c1 [Compound 3774] | 0.01 to 10 nM |
| CN(C)CCOc1ccc(NC(=O)C(=O)NC[C@H](NC(=O)c2ccc(Nc3nc(NC4(c5ccc(Cl)cc5)CC4)nc(OCC(F)(F)F)n3)cc2)C(=O)Cl)cn1 [Compound 3790] | 0.01 to 10 nM |
| Cc1nccc(-c2cccc(NC(=O)C(=O)NCC[C@H](NC(=O)c3ccc(Nc4nc(NC5(c6ccc(Cl)cc6)CC5)nc(OCC(F)(F)F)n4)cc3)C(=O)O)c2)n1 [Compound 3625] | 0.01 to 10 nM |
| COc1cccc2sc(NC(=O)C(=O)NCC(C)(C)CNC(=O)c3ccc(Nc4nc(NC5(c6ccc(Cl)cc6)CC5)nc(OCC(F)(F)F)n4)cc3)nc12 [Compound 3813] | 0.01 to 10 nM |

same assay, conditions: Hepatitis C virus, Huh-7, read-out: Activity (EC50 class), HCV pseudoparticles (genotype 1a, H77C) in Huh7 cells; EC50 expressed as class A/B

| Structure (SMILES) | EC50 |
| --- | --- |
| Cc1nnnn1-c1cc(Nc2nc(NC3(c4ccc(Cl)cc4)CC3)nc(OCC(F)(F)F)n2)ccc1C(=O)NCC(C)(C)CNC(=O)C(=O)Nc1ccc(F)cc1 [Compound 3552] | 0.01 to 10 nM |
| COc1cccc(CNC(=O)C(=O)NCC(C)(C)CNC(=O)c2ccc(Nc3nc(NC4(c5ccc(Cl)cc5)CC4)nc(OCC(F)(F)F)n3)cc2)c1 [Compound 3012] | 0.01 to 10 nM |
| O=C(NCC(O)CNC(=O)c1ccc(Nc2nc(NC3(c4ccc(Cl)cc4)CC3)nc(OCC(F)(F)F)n2)cc1)C(=O)N1CCCCC1 (stereo not drawn) [Compound 3465] | 0.01 to 10 nM |
| Cc1cc(NC(=O)C(=O)NCCCCNC(=O)c2ccc(Nc3nc(NC4(c5ccc(Cl)cc5)CC4)nc(OCC(F)(F)F)n3)cc2)no1 [Compound 3394] | 0.01 to 10 nM |
| CC(CNC(=O)C(=O)N1CCCCC1)CNC(=O)c1ccc(Nc2nc(NC3(c4ccc(Cl)cc4)CC3)nc(OCC(F)(F)F)n2)cc1 (stereo not drawn) [Compound 3475] | 0.01 to 10 nM |
| COC(=O)[C@H](CNC(=O)C(=O)Nc1ccc(OCC(F)(F)F)cc1)NC(=O)c1ccc(Nc2nc(NC3(c4ccc(Cl)cc4)CC3)nc(OCC(F)(F)F)n2)cc1 [Compound 3096] | 0.01 to 10 nM |
| COC(=O)[C@H](CCNC(=O)C(=O)Nc1ccc(-c2cc[nH]n2)cc1)NC(=O)c1ccc(Nc2nc(NC3(c4ccc(Cl)cc4)CC3)nc(OCC(F)(F)F)n2)cc1 [Compound 3310] | 0.01 to 10 nM |
| O=C(NC/C(=N/C(=O)c1ccc(Nc2nc(NC3(c4ccc(Cl)cc4)CC3)nc(OCC(F)(F)F)n2)cc1)C(=O)O)C(=O)Nc1ccc(N2CCOCC2)cc1 [Compound 3148] | 0.01 to 10 nM |
| COC(=O)[C@H](CNC(=O)C(=O)Nc1ccc(CN2CCS(=O)(=O)CC2)cc1)NC(=O)c1ccc(Nc2nc(NC3(c4ccc(Cl)cc4)CC3)nc(OCC(F)(F)F)n2)cc1 [Compound 3194] | 0.01 to 10 nM |
| Cc1ccc(-c2ccccc2NC(=O)C(=O)NCC(C)(C)CNC(=O)c2ccc(Nc3nc(NC4(c5ccc(Cl)cc5)CC4)nc(OCC(F)(F)F)n3)cc2)o1 [Compound 3240] | 0.01 to 10 nM |
| COC(=O)[C@@H](CCNC(=O)C(=O)Nc1cccc(C)c1)NC(=O)c1ccc(Nc2nc(NC3(c4ccc(Cl)cc4)CC3)nc(OCC(F)(F)F)n2)cc1 [Compound 3572] | 0.01 to 10 nM |
| CC(CNC(=O)C(N)=O)CNC(=O)c1ccc(Nc2nc(NC3(c4ccc(Cl)cc4)CC3)nc(OCC(F)(F)F)n2)cc1 (stereo not drawn) [Compound 3345] | 0.01 to 10 nM |
| Cc1ccc(NC(=O)C(=O)NCC(C)(C)CNC(=O)c2ccc(Nc3nc(NC4(c5ccc(Cl)cc5)CC4)nc(OCC(F)(F)F)n3)cc2)c(Cl)c1 [Compound 3378] | 0.01 to 10 nM |
| CC(C)CNC(=O)C(=O)NCC(O)CNC(=O)c1ccc(Nc2nc(NC3(c4ccc(Cl)cc4)CC3)nc(OCC(F)(F)F)n2)cc1 (stereo not drawn) [Compound 3467] | 0.01 to 10 nM |
| COC(=O)[C@H](CCNC(=O)C(=O)Nc1ccc(Oc2ccncc2)cc1)NC(=O)c1ccc(Nc2nc(NC3(c4ccc(Cl)cc4)CC3)nc(OCC(F)(F)F)n2)cc1 [Compound 3323] | 0.01 to 10 nM |
| COC(=O)[C@H](CCNC(=O)C(=O)Nc1ccc(Oc2ccccc2)cc1)NC(=O)c1ccc(Nc2nc(NC3(c4ccc(Cl)cc4)CC3)nc(OCC(F)(F)F)n2)cc1 [Compound 3113] | 0.01 to 10 nM |
| COC(=O)[C@H](CCNC(=O)C(=O)Nc1ccc(-c2ccno2)cc1)NC(=O)c1ccc(Nc2nc(NC3(c4ccc(Cl)cc4)CC3)nc(OCC(F)(F)F)n2)cc1 [Compound 3316] | 0.01 to 10 nM |
